Laboratory results published in patent US7563805B2, “Tri-, tetra-substituted-3-aminopyrrolidine derivative” (Daiichi Pharmaceutical Co., Ltd., priority 2005, dated 2009).
Values after ≈ are worked out from the molar mass of the structure shown. Where two headings read alike, the source gives them in different places.

Key:
[1] = female, cynomolgus monkey, in vivo
[2] = system: penicillin resistant Streptococcus pneumoniae (PRSP) strain 033806; assay: mouse local lung infection model by PRSP
[3] = system: S. aureus, 209P; assay: antibacterial activity (MIC), standard method of Japanese Society of Chemotherapy; details: Staphylococcus aureus
[4] = system: E. coli strain E77156; assay: rat simple cystitis model (E. coli); type: in vivo
[5] = system: S. pneumoniae, J24 (penicillin-intermediate resistant bacteria); assay: antibacterial activity (MIC), standard method of Japanese Society of Chemotherapy
[6] = molecular target: hERG K+ channel (Homo sapiens, UniProt Q12809); assay: hERG-K^+ channel blocking effect
hERG K+ channel, sequence (Q12809 whole entry): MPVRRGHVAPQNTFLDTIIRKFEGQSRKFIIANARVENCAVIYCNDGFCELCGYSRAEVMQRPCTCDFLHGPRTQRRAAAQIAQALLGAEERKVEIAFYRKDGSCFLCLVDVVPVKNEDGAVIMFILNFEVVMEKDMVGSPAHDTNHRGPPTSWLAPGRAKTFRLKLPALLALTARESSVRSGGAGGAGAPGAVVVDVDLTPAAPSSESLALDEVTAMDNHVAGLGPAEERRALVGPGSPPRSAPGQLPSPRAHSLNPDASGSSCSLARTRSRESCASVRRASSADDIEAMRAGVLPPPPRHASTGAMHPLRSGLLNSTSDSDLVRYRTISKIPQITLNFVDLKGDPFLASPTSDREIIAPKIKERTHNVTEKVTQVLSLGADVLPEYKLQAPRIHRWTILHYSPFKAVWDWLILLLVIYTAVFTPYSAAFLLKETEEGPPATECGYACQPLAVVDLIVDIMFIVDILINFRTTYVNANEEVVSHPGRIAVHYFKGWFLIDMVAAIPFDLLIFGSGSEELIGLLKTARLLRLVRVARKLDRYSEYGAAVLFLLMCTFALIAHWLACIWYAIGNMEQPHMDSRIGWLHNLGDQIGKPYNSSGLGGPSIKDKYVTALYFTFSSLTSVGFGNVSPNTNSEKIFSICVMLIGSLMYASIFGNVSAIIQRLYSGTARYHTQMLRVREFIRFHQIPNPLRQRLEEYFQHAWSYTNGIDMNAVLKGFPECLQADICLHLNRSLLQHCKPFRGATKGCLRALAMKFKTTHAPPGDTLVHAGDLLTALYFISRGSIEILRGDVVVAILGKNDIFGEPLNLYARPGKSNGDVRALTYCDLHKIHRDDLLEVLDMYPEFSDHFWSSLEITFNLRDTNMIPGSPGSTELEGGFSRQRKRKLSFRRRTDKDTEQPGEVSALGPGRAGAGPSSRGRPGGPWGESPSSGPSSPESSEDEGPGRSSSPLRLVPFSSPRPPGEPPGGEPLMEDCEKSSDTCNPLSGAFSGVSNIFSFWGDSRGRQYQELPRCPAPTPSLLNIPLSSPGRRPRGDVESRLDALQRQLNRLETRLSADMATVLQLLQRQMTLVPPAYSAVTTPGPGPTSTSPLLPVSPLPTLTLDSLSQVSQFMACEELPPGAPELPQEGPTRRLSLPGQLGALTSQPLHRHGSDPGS

[7] = in vivo; details: male, Crj:CD IGS, rat, po, 5 mg/kg
[8] = in vivo; details: female, cynomolgus monkey, po, 5 mg/kg
[9] = system: bone marrow cells (polychromatic erythrocytes); assay: mouse bone marrow micronucleus test; type: in vivo, Slc:ddY male mice; details: single i.v. dose, 24 h, Example 2: 50, 100 mg/kg, Example 3: 100, 150 mg/kg, Example 9: 50, 100, 150 mg/kg
Description: The control was 0.1 mol/l NaOH/physiological saline solvent, and the positive control was cyclophosphamide (cyclophoshamide, CP) dissolved and diluted in physiological saline. All samples were sterilized by filtering through Milex GS filter (0.22 μm). Each solution was intravenously administered at a dose of 10 mL/kg in single dose at an administration rate of 0.2 mL/min.
Bone marrow cells were collected from thigh bone at 24 hours after the administration, and smear preparation was prepared. After staining with acridine orange, 1000 polychromatic erythrocytes per animal were observed under fluorescence microscope to count frequency of micrronucleated polychromatic erythrocyte and ratio of the orthochromatic erythrocytes to the polychromatic erythrocyte in 1000 erythrocytes.

[10] = system: S. epidermidis, 56500; assay: antibacterial activity (MIC), standard method of Japanese Society of Chemotherapy; details: Staphylococcus epidermidis, 56500, S. epidermidis
[11] = parameters: species or system guinea pigs (Slc:Hertley); details: male, Slc:Hertley, guinea pig, in vivo
Description: Guinea pig maximization test (GPMT) which is a widely accepted model for delayed antigenicity was conducted according to the method of Mugnusson et al. (J. invest. Dermatol., 52, 1969) by using a cutaneous sensitization concentration of 1% and a patch sensitization and induction concentration of 10%. At day 1, the animal was sensitized by cutaneously administering the test substance (the quinolone compounds and the control: vehicle, vaseline) (1% solution in physiological saline+FCA emulsion) at the back of the head of the shaved guinea pigs (7 week old male Slc:Hertley). At day 7, lauryl sodium sulfate (SLC) was applied for stimulus (adjuvant treatment), and on the next day, the test substance coated on a wax paper was patched onto the shaved skin to for sealed sensitization, and after 48 hours (at day 10), the waxed paper was removed. The skin reaction was observed upon the removal. On day 22, the test substance (10%) was patched onto the anterior side of the body for induction, and the induction patching was removed after 24 hours. On the next day (at day 24) and the next day (at day 25), the skin reaction was evaluated according to the description of the document as mentioned above. Erythema and edema were scored, and the case with the total score of 2 or higher was evaluated to be positive with the maximum of the score being 7.

[12] = molecular target: CYP3A4 (Homo sapiens, UniProt P08684); assay: mechanism-based inhibition (MBI) of CYP3A4, hydroxylation at position 1 of midazolam; details: inhibition of midazolam 1-hydroxylation; dependence on preincubation time and drug concentration (FIG. 1)
CYP3A4, sequence (P08684 whole entry): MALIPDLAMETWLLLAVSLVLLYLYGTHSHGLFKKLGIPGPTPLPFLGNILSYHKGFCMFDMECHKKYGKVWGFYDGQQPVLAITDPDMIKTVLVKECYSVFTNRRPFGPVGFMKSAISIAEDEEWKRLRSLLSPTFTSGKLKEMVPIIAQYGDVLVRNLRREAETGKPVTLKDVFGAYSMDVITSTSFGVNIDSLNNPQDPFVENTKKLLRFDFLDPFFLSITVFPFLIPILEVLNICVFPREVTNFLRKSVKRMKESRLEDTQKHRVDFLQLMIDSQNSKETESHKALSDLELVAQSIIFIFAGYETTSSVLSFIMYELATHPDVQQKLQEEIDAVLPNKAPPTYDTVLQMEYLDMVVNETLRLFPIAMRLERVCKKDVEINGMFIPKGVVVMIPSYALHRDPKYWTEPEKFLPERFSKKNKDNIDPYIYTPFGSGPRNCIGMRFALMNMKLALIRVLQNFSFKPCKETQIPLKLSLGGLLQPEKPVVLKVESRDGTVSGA
Description: Mechanism-based inhibition (MBI) of CYP3A4 was evaluated by using inhibition of hydroxylation at position 1 of midazolam.

[13] = system: Mycobacterium tuberculosis (sensitive bacteria); assay: anti-Mycobacterium tuberculosis (sensitive bacteria) activity, MIC; type: cell-based
[14] = system: E. coli NIHJ; assay: antibacterial activity (MIC), standard method of Japanese Society of Chemotherapy; details: Escherichia coli
[15] = system: P. aeruginosa, 32104; assay: as above; details: Pseudomonas aeruginosa
[16] = type: in vivo; details: 30 minutes observation
Description: The test substance was intracisternally administered to male Slc:ddy mice (6 animals per group), and the convulsion and death were monitored for each cage until 30 minutes after the administration. The test substance was dissolved in 5 μl of 1% aqueous solution of lactic acid, and the dose was 5, 15, or 50 μg per animal.

[17] = system: P. aeruginosa, 32121; assay: antibacterial activity (MIC), standard method of Japanese Society of Chemotherapy; details: Pseudomonas aeruginosa
[18] = system: E. faecalis, ATCC 19433; assay: as above; details: E. faecalis

## COc1c(N2CC(C)(N)C3(CC3)C2)c(F)cc2c(=O)c(C(=O)O)cn([C@@H]3C[C@@H]3F)c12 (stereo partly drawn) [Example 9, 7-(7-Amino-7-methyl-5-azaspiro[2.4]heptan-5-yl)-6-fluoro-1-[(1R,2S)-2-fluorocyclopropyl]-8-methoxy-1,4-dihydro-4-oxoquinoline-3-carboxylic acid]
[1]
  blood penetration, times higher than Comparative compound 1: about 2.5 times
  urine excretion rate, times higher than Comparative compound 1: more than 2 times
[1]; 5 mg/kg
  Recovery (%) in urine in relation to the amount administered, Recovery (%) including conjugate: 59.5%
[2]; CBA/JNCrlj mice, oral at 2 and 8 hours after infection, 25, 50, and 100 mg/kg/day (FIG. 2)
  therapeutic effect (number of bacteria in the lung) compared with comparative compound 1 at the same dose: no significant difference
[2]; PRSP strain 033806
  in vivo antibacterial activity for the test bacteria relative to comparative compound 1: about ¼
[3]
  MIC: 0.025 µg/mL (≈ 0.0596 µM)
[4]; oral single dose 5 mg/kg/day
  therapeutic effect compared with Comparative Compound 1: significantly stronger than the Comparative Compound 1
[4]; oral single dose 20 or 80 mg/kg/day, next day of administration (FIG. 4)
  number of bacteria in the bladder: significant decrease in the number of bacteria
[5]
  MIC: 0.1 µg/mL (≈ 0.238 µM)
[6]
  inhibition at 30 µM: 7.4 ± 4.5%
  inhibition at 100 µM: 10.2 ± 5.4%
  inhibition at 300 µM: 20.1 ± 7.4%
[7]
  AUC(0-t): 3080 ng·h/mL
  Cmax: 1220 ng/mL
[8]
  AUC(0-t): 16900 ng·h/mL
  Cmax: 2180 ng/mL
  half-life: 4.8 h
[9]
  micronucleus induction rate versus control, evaluation result: negative
[10]
  MIC: 0.1 µg/mL (≈ 0.238 µM)
[11]
  Average score in GPMT: 0
[12]
  mechanism-based inhibition (MBI) of CYP3A4: weak inhibition
[13]; H37RV, strain H37Rv
  MIC: 0.03 µg/mL (≈ 0.0715 µM)
[13]; strain Kurono
  MIC: 0.03 µg/mL (≈ 0.0715 µM)
[13]; strain Ravenel
  MIC: 0.03 µg/mL (≈ 0.0715 µM)
[13]; strain TB-s 2
  MIC: 0.06 µg/mL (≈ 0.143 µM)
[13]; strain TB-s 3
  MIC: 0.06 µg/mL (≈ 0.143 µM)
[13]; strain TB-s 4
  MIC: 0.06 µg/mL (≈ 0.143 µM)
[13]; strain TB-s 5
  MIC: 0.06 µg/mL (≈ 0.143 µM)
[13]; strain TB-s 6
  MIC: 0.06 µg/mL (≈ 0.143 µM)
[13]; strain TB-s 7
  MIC: 0.06 µg/mL (≈ 0.143 µM)
[13]; strain TB-s 8
  MIC: 0.03 µg/mL (≈ 0.0715 µM)
[13]; strain TB-s 9
  MIC: 0.06 µg/mL (≈ 0.143 µM)
[13]; strain TB-s 10
  MIC: 0.03 µg/mL (≈ 0.0715 µM)
[13]; strain TB-s 11
  MIC: 0.06 µg/mL (≈ 0.143 µM)
[13]; strain TB-s 12
  MIC: 0.125 µg/mL (≈ 0.298 µM)
[13]; strain TB-s 13
  MIC: 0.06 µg/mL (≈ 0.143 µM)
[13]; strain TB-s 14
  MIC: 0.06 µg/mL (≈ 0.143 µM)
[13]; strain TB-s 15
  MIC: 0.06 µg/mL (≈ 0.143 µM)
[13]; strain TB-s 16
  MIC: 0.06 µg/mL (≈ 0.143 µM)
[13]; strain TB-s 17
  MIC: 0.06 µg/mL (≈ 0.143 µM)
[13]; strain TB-s 18
  MIC: 0.06 µg/mL (≈ 0.143 µM)
[13]; strain TB-s 19
  MIC: 0.06 µg/mL (≈ 0.143 µM)
[13]; strain TB-s 20
  MIC: 0.06 µg/mL (≈ 0.143 µM)
[13]; strain TB-s 21
  MIC: 0.06 µg/mL (≈ 0.143 µM)
[13]; strain TB-s 22
  MIC: 0.03 µg/mL (≈ 0.0715 µM)
[14]
  MIC: 0.025 µg/mL (≈ 0.0596 µM)
[15]
  MIC: 0.39 µg/mL (≈ 0.93 µM)
[16]; 5 μg/mouse intracisternal
  convulsant activity (animals affected / 6 animals per group): 0/6
[16]; 15 μg/mouse intracisternal
  convulsant activity (animals affected / 6 animals per group): 2/6
[16]; 50 μg/mouse intracisternal
  convulsant activity (animals affected / 6 animals per group): 6/6
[17]
  MIC: 0.2 µg/mL (≈ 0.477 µM)
[18]
  MIC: 0.2 µg/mL (≈ 0.477 µM)
